Patent publication US12145945B2, “Compounds, compositions, and therapeutic uses thereof” (Breakpoint Therapeutics GmbH, priority 2023, dated 2024)

Target: truncated Polθ protein (Polθ-Hel containing the helicase domain (67-894)) (Homo sapiens (Human), UniProt O75417)
Assay: Polθ ATPase assay (Biological Assay 1, ADP-Glo luminescence)
Assay type: biochemical
Protocol: The Polθ ATPase assay was used to evaluate inhibitors of Polθ ATPase activity, in vitro. Experiments were performed using a truncated Polθ protein (Polθ-Hel containing the helicase domain (67-894), ATP and a DNA single strand Oligo (5′-CTGTCCTGCATGATG-3′) in the Polθ assay buffer (20 mM Tris-HCl (pH 8.8), MgCl2 5 mM, tween20 0.01%, NP40 0.01%, BSA 0.01%, DTT 1 mM). 2 μL of assay buffer containing Polθ-Hel protein (0.5 nM) and DNA substrate (500 nM) was transferred into assay ready plates, containing 0.04 μL of compounds diluted in DMSO. After a 30 minutes incubation at 23° C. in the dark, the reaction was triggered by adding 2 μL of ATP (60 μM), in assay buffer. After 60 minutes at 23° C., 4 μl of ADP-Glo™ Reagent (Glo 1) was added followed by 40 minutes of incubation, then 8 μl of ADP-Glo™ kinase Detection Reagent (Glo 2) followed by 60 minutes of incubation at 23° C. Luminescence was then measured using Tecan F200 infinite plate reader. Raw data were analysed using GeneData to generate IC50 values.
The Polθ ATPase assay described in Biological Assay 1 above was used to evaluate inhibitors of Polθ ATPase activity for the compounds described in the Experimental Part B above, in vitro.

[1] = Table A, Polθ-Hel 0.5 nM, DNA substrate 500 nM, ATP 60 μM

Sequence of truncated Polθ protein (Polθ-Hel containing the helicase domain (67-894)) (O75417 67-894): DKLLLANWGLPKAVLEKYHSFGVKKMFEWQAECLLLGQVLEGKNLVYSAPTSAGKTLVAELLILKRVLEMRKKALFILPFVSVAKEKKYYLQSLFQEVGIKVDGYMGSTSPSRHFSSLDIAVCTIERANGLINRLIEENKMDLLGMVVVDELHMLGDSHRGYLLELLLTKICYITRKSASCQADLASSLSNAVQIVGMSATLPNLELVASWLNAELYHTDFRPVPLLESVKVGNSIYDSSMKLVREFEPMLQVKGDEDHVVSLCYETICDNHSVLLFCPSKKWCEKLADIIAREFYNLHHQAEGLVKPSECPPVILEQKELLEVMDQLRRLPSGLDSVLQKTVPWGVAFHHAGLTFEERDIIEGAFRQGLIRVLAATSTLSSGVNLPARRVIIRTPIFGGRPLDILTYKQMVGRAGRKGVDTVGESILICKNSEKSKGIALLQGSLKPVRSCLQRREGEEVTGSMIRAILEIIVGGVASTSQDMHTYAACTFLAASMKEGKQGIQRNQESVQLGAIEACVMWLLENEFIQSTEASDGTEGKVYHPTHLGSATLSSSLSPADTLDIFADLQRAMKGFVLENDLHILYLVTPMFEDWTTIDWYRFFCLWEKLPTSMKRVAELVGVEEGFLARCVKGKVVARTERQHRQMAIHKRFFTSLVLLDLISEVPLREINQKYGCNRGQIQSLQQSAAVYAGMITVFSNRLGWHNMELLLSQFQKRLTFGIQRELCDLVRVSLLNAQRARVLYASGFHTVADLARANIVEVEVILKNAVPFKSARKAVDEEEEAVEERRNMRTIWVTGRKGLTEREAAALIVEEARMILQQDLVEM

IC50 [1] [µM] | IC50 (Table B (Part B compounds), same assay as Biological Assay 1) [µM] | Structure (SMILES)
< 0.1 |  | COc1cnc(Cl)cc1-c1cc(C)ncc1C(=O)Nc1nc2ccc(I)cc2s1 [Example 4, 2′-chloro-N-(6-iodo-1,3-benzothiazol-2-yl)-5′-methoxy-6-methyl-[4,4′-bipyridine]-3-carboxamide]
> 1 |  | COc1ccccc1-c1cnccc1C(=O)Nc1nc2ccccc2s1 [Example 15, N-(1,3-benzothiazol-2-yl)-3-(2-methoxyphenyl) pyridine-4-carboxamide]
< 0.1 |  | COc1cnc(Cl)cc1-c1cc(C)ncc1C(=O)Nc1nc2cnc(N3CCC(O)CC3)cc2s1 [Example 68, 2′-chloro-N-[6-(4-hydroxypiperidin-1-yl)-[1,3]thiazolo[4,5-c]pyridin-2-yl]-5′-methoxy-6-methyl-[4,4′-bipyridine]-3-carboxamide]
 | < 0.1 | COc1cnc(Cl)cc1-c1cc(C)ncc1C(=O)Nc1nc2cnc(N3CC(OC)C3)cc2s1 [Example 129, 2′-chloro-5′-methoxy-N-[6-(3-methoxyazetidin-1-yl)-[1,3]thiazolo[4,5-c]pyridin-2-yl]-6-methyl-[4,4′-bipyridine]-3-carboxamide]
